The text below walks through data of US7348160B2, “Phosphoamidase assay” (Merck Patent GmbH, priority 2002, dated 2008).

By Km is commonly meant the concentration of substrate that gives half-maximal velocity.

In experiment [1] the target is T1, PHP1 (Homo sapiens, UniProt Q9NRX4).
T1 sequence (Q9NRX4 1-125): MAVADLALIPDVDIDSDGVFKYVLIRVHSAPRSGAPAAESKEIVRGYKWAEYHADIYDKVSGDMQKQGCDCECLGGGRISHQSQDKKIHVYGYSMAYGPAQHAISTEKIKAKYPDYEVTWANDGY
Briefly: Kinetic analysis of the conversion of FDP and DiFMUP by PHP1. The experiment is classed as biochemical. Conditions: pH 7.0, 0.1 μM PHP1.
Method: The KM-values for DiFMUP and FDP can be approximated by recording the initial reaction velocity in dependence of the substrate concentration, as observed by the increase in relative fluorescence at the respective fluorescence emission maxima upon addition of PHP1. […] This effect limits the range of substrate variation. For FDP concentrations >20 μM the signal quenching disturbs reaction rate measurements detrimentally. […] Measurements for DiFMUP are limited to concentrations below 500 μM.
To start the reaction PHP1 was added from a stock solution to a final concentration of 0.1 in μM. The reaction was monitored by recording the increase in relative fluorescence at the respective fluorescence emission maxima in an SLM fluorescence spectrometer. To allow for quantification the fluorescence signal was normalised using a standard curve recorded for a serial dilution of fully dephosphorylated DiFMUP and FDP respectively. All recordings were carried out at the same PM-voltage and integration time with correction for the relative signal gain.

Experiment [2] deals with T1, PHP1. The experiment in a line: pH-dependence of conversion of fluorogenic and chromogenic substrates by PHP1. The experiment is classed as biochemical. The following applies: for acceptance as substrate by PHP1: pH 5-9, 0.1 μM PHP1; for turnover rate by PHP1 in more alkaline media: pH above the maximum, up to pH 9. An excerpt:
Because it is well known that the use of phospho fluorophores like DIFMUP, MUP, DDAO or FDP as phosphatase substrates have certain limitations due to the compatibility of the substrate pKa-values with the pH-optima of the respective phosphatase, the pH-dependence of the PHP1 reactivity towards the aforementioned fluorogenic substrates is to be determined. As shown in FIG. 1 the pH is varied from pH=5-9 in steps of 0.5 pH-units. In order to avoid undesired fluorescence flattening effects due to high absorption by the accumulating reaction product the initial reaction velocity is used as relative measure for the pH-dependence of PHP1-reactivity towards the selected substrate.
To start the reaction PHP1 was added from a pre dilution in the respective reaction buffer to yield a final concentration of 0.1 μM. The reaction was monitored by recording the increase in relative fluorescence at the respective fluorescence emission maxima (Fluoromax Gemini XL microplate reader).

In experiment [3] the target is T2, T-cell tyrosine phosphatase (Homo sapiens, UniProt P17706).
T2 sequence (P17706 1-415): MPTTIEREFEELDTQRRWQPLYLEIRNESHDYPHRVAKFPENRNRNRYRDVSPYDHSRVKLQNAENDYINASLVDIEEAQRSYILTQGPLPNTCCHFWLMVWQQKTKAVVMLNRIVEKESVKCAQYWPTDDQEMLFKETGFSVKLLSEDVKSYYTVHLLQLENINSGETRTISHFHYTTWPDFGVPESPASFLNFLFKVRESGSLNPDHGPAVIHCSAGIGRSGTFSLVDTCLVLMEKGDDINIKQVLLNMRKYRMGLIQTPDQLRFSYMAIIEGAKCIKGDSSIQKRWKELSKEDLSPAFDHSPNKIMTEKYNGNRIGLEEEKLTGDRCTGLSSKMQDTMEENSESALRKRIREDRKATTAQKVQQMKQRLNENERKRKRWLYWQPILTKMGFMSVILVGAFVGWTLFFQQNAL
The following applies: from literature (Kerby et al. 2001); cited from earlier work.

In experiment [4] the target is T1, PHP1. The experiment in a line: Screening assay for inhibitors or activators of PHP1 with DiFMUP substrate. The experiment is classed as biochemical. How it is done: In order to test whether the phosphoamidase and protein phosphoamidase substrates of the present invention are suitable for the for identification of inhibitors or activators of these proteins, the activity of PHP1 was determined with the substrate DiFMUP in presence of bisperoxo-(bipyridine)-oxovanadate [(bp)V(bipy)], a well characterized inhibitor of protein phosphotyrosine phosphatase(FIG. 9). The inhibitor concentration varied from 0.01 to 30 μM, the enzyme concentration was kept at 0.1 μM and substrate concentration at 50 μM. After incubation for 15 min at room temperature the fluorescence was detected at 450 nm on excitation at 360 nm.
The reaction mixtures for inhibitor screening were prepared by serial 2 fold dilution of the inhibitor bpV(bipy) (Alexis Biochemicals San Diego) starting at 60 μM into 50 μl of the assay buffer consisting of 25 mM Hepes pH=7, 20 mM NaCl, 1 mM MgCl2, 0.01 mg/ml BSA. In a next step 50 μl of a solution of 0.3 μM PHP1 in assay buffer was added to each well and incubated for 5 min at room temperature. In order to initiate the reaction a pre dilution of 50 μM DiFMUP-substrate in assay-buffer was rapidly added to all wells. The reaction was monitored by recording the increase in relative fluorescence at the respective fluorescence emission maxima (Fluoromax Gemini XL microplate reader). The relative activity was calculated using the RFU derived from a control reaction without inhibitor.

Setting [5] is: 0.1 μM PHP1, 50 μM DiFMUP, inhibitor 0.01 to 30 μM.

Like-named read-outs stand apart in the source and are kept apart here.

Take fluorescein diphosphate [FDP]: on PHP1 [1] (non-linear curve fit, high uncertainty, read-out: Michaelis constant KM for PHP1), the Km is approximately 20 µM. Moreover, at PHP1 [2], the “acceptance as substrate by PHP1” value was “accepts” and the “turnover rate by PHP1 in more alkaline media” value (“turnover rate by PHP1” below) is given as “second distinct maximum”.
Consider `CC1(C)C2=C(Cl)C(=O)C(Cl)=CC2=Nc2ccc(OP(=O)(O)O)cc21` [DDAO, 9H-(1,3-dichloro-9,9-dimethyl-acridin-2-one-7-yl)phosphate], for which, on PHP1 [2], the “acceptance as substrate by PHP1” value is on record as “accepts” and the “turnover rate by PHP1” value was “stays relatively constant”.
In the case of `O=[N+]([O-])c1ccc(OP(=O)(O)O)cc1` [pNPP, para-nitrophenol phosphate], the “acceptance as substrate by PHP1” value on PHP1 [2] was “not recognised and processed by PHP1 at any pH”.
In the case of `Cc1cc(=O)oc2c(F)c(OP(=O)(O)O)c(F)cc12` [DiFMUP, 6,8-difluoro-4-methylum-belliferyl phosphate], the Km in experiment [3] was 20 µM. In addition, the Km at PHP1 [1] (estimated from Lineweaver-Burk plot, read-out: KM-value for PHP1) was more than 1000 µM. Also, at PHP1 [2], the “acceptance as substrate by PHP1” value was “accepts” and the “turnover rate by PHP1” value is on record as “decrease in turnover rate”.
As for “bisperoxo-(bipyridine)-oxovanadate [(bp)V(bipy)]”, at PHP1 [4] (setting [5]), the “concentration showing inhibitory effect on PHP1” value is “above 10 μM”; the “inhibition of PHP1 activity” value is “reproducible and clearly dose-dependent inhibition”. For the same compound, at PHP1 [4] (equimolar concentrations (0.1 μM PHP1), 50 μM DiFMUP), the “activation of PHP1 activity” value was “by a factor of two”.
